Residues, ends and D or L forms follow the SMILES beside them. Primed or numbered codes have the meaning given here. No end group written: not given here. *: point of attachment. diMeOPac = (2',4'-dimethoxy)phenacyl ester on the Asp side chain, COc1ccc(C(=O)C*)c(OC)c1; Fmoc = O=C(OCC1c2ccccc2-c2ccccc21)*; X1 = CC(O*)C(=O)c1ccccc1; OPac′ = phenacyl ester; X2 = ClC(Cl)(Cl)CO*
Key:
[1] = buffer, pH 6.5
Method: The C-terminal unprotected peptide (1.5 equivalent) and the N-terminal peptide (1 equivalent) were solubilized in freshly degassed 6M guanidinium hydrochloride, 0.2 M sodium phosphate, pH 7.5 buffer at a concentration of 2.5 mM each. After addition of 1% thiophenol and 1% benzyl mercaptan the pH was adjusted to 6.5 (or different thiols concentration or pH as reported in the text). Aliquots of this solution were treated with equal volumes of BME for 5 minutes and then with 10% TCEP for 10 minutes to completely hydrolyse any thiol adduct before HPLC analysis. Ligation reaction analysis was conducted using a gradient starting from 10% of B with a gradient slope of 1.66% of B per minute. Base line resolution of the different isomerization product was achieved using a gradient starting at 20% of B and with an increase of 0.33% B.

SV8 protease = SV8 protease (Staphylococcus aureus, UniProt P0C1U8); details: 1 unit/20 μg, 24 hours at 37° C.
Sequence of SV8 protease (P0C1U8 69-336): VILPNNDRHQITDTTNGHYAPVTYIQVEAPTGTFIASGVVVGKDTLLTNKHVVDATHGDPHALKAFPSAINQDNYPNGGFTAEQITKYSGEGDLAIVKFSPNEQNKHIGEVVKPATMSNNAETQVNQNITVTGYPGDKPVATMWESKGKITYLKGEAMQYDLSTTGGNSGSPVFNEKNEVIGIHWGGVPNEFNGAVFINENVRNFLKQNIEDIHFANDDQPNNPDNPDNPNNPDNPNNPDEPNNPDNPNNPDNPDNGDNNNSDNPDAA
Method: Peptides were digested using the enzyme SV8 protease. The peptides, solubilized to a final 5 mM concentration in 0.1 M NH4HCO3 and 0.3% BME, were digested by adding the enzyme solution (250 unit/ml), keeping the enzyme/peptide ratio of 1 unit/20 μg. The reaction was stopped after 24 hours at 37° C. by treatment with equal volumes of 10% TCEP, and extent of digestion assayed by RP-HPLC. Digested fragments were characterized by ESI-MS.

Molecule	Hydrolysis t1/2 [1]	half-life in the ligation condition [1]	digestion by SV8 protease (SV8 protease)
CC(=O)N[C@@H](CC(=O)OC(C)C(=O)c1ccccc1)C(=O)N[C@@H](Cc1ccc(O)cc1)C(=O)N[C@@H](C)C(=O)N[C@@H](CCCCN)C(=O)N[C@@H](Cc1ccc(O)cc1)C(=O)N[C@@H](C)C(=O)N[C@@H](CCCCN)C(=O)N[C@@H](CC(C)C)C(=O)O (some centres unmarked) [OMop, Ac-D(OMop)YAKYAKL] (Ac-D(X1)YAKYAKL-OH)	9.9 h	500 h	
CC(C)C[C@H](NC(=O)[C@H](CCCCN)NC(=O)[C@H](C)NC(=O)[C@H](Cc1ccc(O)cc1)NC(=O)[C@H](CCCCN)NC(=O)[C@H](C)NC(=O)[C@H](Cc1ccc(O)cc1)NC(=O)[C@H](CC(=O)OCC(Cl)(Cl)Cl)NC(=O)OCC1c2ccccc2-c2ccccc21)C(=O)O [Troc, Fmoc-D(Troc)YAKYAKL] (Fmoc-D(X2)YAKYAKL-OH)	1.5 h	less than 2 hours	
Ac-D(OPac)YAKYAKL (Ac-D(OPac′)YAKYAKL)	1.2 h		
Ac-D(diMeOPac)YAKYAKL [OdiMeOPac]	3.8 h		
LYRAD(β)CSYUFL [product 6]			unaffected by the enzyme
LYRAE(γ)CSYRFL [product 7]			unaffected by the enzyme

From patent US7566697B2, “Carboxy protection strategies for acidic C-terminal amino acids in chemical ligation of oligopeptides” (Amylin Pharmaceuticals, Inc., priority 2002, dated 2009)
